Test results taken from PubChem BioAssay (NCI).
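The compound was tested at five concentrations on cells cultured in 96-well plates, with a 48-hour exposure period. GI50 = concentration required for 50% inhibition of growth. Definition used: TGI = concentration required for complete inhibition of growth.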

Experiments:
Experiment in all cases: NCI-60 cell line screen, 48 h
[1] = tested on: UACC-62 melanoma
[2] = tested on: OVCAR-4 ovarian
[3] = tested on: EKVX NSCLC
[4] = tested on: M14 melanoma
[5] = tested on: OVCAR-3 ovarian
[6] = tested on: OVCAR-8 ovarian
[7] = tested on: COLO 205 colon
[8] = tested on: MDA-MB-435
[9] = tested on: DU-145 prostate
[10] = tested on: HS 578T breast

SMILES	TGI [1] [µM]	TGI [2] [µM]	TGI [3] [µM]	TGI [4] [µM]	TGI [5] [µM]	TGI [6] [µM]	TGI [7] [µM]	GI50 [1] [µM]	GI50 [8] [µM]	TGI [8] [µM]	GI50 [3] [µM]	GI50 [4] [µM]	GI50 [9] [µM]	TGI [9] [µM]	GI50 [5] [µM]	GI50 [6] [µM]	GI50 [7] [µM]	GI50 [2] [µM]	GI50 [10] [µM]	TGI [10] [µM]
Cc1ccc(S(=O)(=O)c2ccc(NC(=O)SCCC(=O)O)cc2)cc1	> 100	> 100	> 100	> 100	> 100	> 100	> 100	–	–	–	–	–	–	–	–	–	–	–	–	–
C=C=C(C(=O)OC)S(=O)c1ccccc1[N+](=O)[O-] (stereo not drawn)	> 100	> 100	> 100	> 100	> 100	> 100	> 100	–	–	–	–	–	–	–	–	–	–	–	–	–
COc1ccc(OC(C)=O)c2c1CCC=CC2=O	26.2	36.1	–	19.7	29.3	31.4	23	–	–	–	–	–	–	–	–	–	–	–	–	–
CCN(CC)CC(C)(C)C(=O)/C=C/c1cccc(/C=C/C(=O)C(C)(C)CN(CC)CC)c1	3.16	1.41	2.53	2.82	2.31	1.47	0.821	–	–	–	–	–	–	–	–	–	–	–	–	–
C#CCNC(=O)N(CC#C)N=O	> 100	> 100	> 100	> 100	> 100	> 100	–	–	–	–	–	–	–	–	–	–	–	–	–	–
Nc1c(-c2cn(Cc3ccccc3)c3ccccc23)[n+]([O-])c2ccccc2[n+]1[O-]	> 100	> 100	> 100	74.3	68.4	> 100	> 100	–	–	–	–	–	–	–	–	–	–	–	–	–
COC(=O)C1=Cc2cc(OC)c(OC)c(OC)c2[C@H](c2cc(OC)c(OC)c(OC)c2)C1C(=O)OC (stereo partly drawn)	> 100	> 100	> 100	> 100	> 100	> 100	> 100	–	–	–	–	–	–	–	–	–	–	–	–	–
O=C1/C(=N\O)c2ccccc2S1(=O)=O	> 100	> 100	–	> 100	–	> 100	73.6	–	–	–	–	–	–	–	–	–	–	–	–	–
CC1=C(O)c2cn(C)cc2C(=O)C1=O	> 100	> 100	> 100	> 100	> 100	> 100	> 100	–	–	–	–	–	–	–	–	–	–	–	–	–
COc1ccccc1NC(=O)C1=C(C)NC(C)=C(C(=O)Nc2ccccc2OC)C1C1=CC=COC1	15.5	> 100	> 100	22.5	9.5	40.4	> 100	–	–	–	–	–	–	–	–	–	–	–	–	–
Cc1cc([N+](=O)[O-])ccc1NC(=O)C(=O)C(C(=O)c1ccccc1-c1ccccc1)C1OC(=O)c2ccccc21 (stereo not drawn)	13.5	77.9	–	27.4	–	77.1	41.8	–	–	–	–	–	–	–	–	–	–	–	–	–
OC(c1cc(-c2cccc(Cl)c2)nc2ccccc12)C1CCCCN1 (stereo not drawn)	3.58	–	2.94	3.74	3.21	3.42	3.7	1.93	1.63	3.15	1.45	1.91	1.76	3.15	1.81	1.79	1.98	–	–	–
COc1ccc(C(=O)Nc2ncc(Cc3cccc(Cl)c3)s2)cc1OC	> 100	> 100	> 100	> 100	9.71	> 100	> 100	0.0173	–	–	0.693	0.0371	1.88	> 100	0.368	1.56	0.222	3.68	0.445	> 100
c1ccc([CH2][Sn]([CH2]c2ccccc2)([O]c2cccc3cccnc23)[O]c2cccc3cccnc23)cc1	0.447	0.374	1.99	1.75	0.949	1.59	0.477	0.178	–	–	0.741	0.46	–	–	0.3	0.515	0.194	0.184	–	–
CN(C)c1ccc(/C=C/C(=O)[O-])cc1.CN(C)c1ccc(/C=C/C(=O)[O-])cc1.[Cu+2]	> 62.9	> 100	> 100	> 100	> 100	> 100	> 100	–	–	–	–	–	–	–	–	–	–	14.9	–	–
CC(=O)Nc1ccc(/C=c2\sc3nnc(CCC(=O)Nc4ccccc4Cl)n3c2=O)cc1	56.2	43	> 100	35.8	47.4	> 10	–	–	–	–	–	–	–	–	–	–	–	–	–	–
COC1OC(CO)C(O)C(OC(C)=O)C1NC(=O)N(CCCl)N=O (stereo not drawn)	> 100	> 100	> 100	> 100	> 100	> 100	> 100	–	–	–	–	–	–	–	–	–	–	–	–	–
COc1ccc2c(c1)[n+]([O-])c(-c1ccc([N+](=O)[O-])cc1)c(N)[n+]2[O-]	–	> 100	> 100	> 100	> 100	> 100	> 100	–	–	–	–	–	–	–	–	–	–	–	–	–

SMILES	TGI [1] [µM]	TGI [2] [µM]	TGI [3] [µM]	TGI [4] [µM]	TGI [5] [µM]	TGI [6] [µM]	TGI [7] [µM]	GI50 [1] [µM]	GI50 [8] [µM]	TGI [8] [µM]	GI50 [3] [µM]	GI50 [4] [µM]	GI50 [9] [µM]	TGI [9] [µM]	GI50 [5] [µM]	GI50 [6] [µM]	GI50 [7] [µM]	GI50 [2] [µM]	GI50 [10] [µM]	TGI [10] [µM]
O=C1CC(c2c(-c3ccccc3)[nH]c3ccccc23)C(=O)N1 (stereo not drawn)	> 100	> 100	> 100	> 100	> 100	> 100	–	–	–	–	–	–	–	–	–	–	–	–	–	–
COC(=O)C(Cc1nc2ccccc2[nH]c1=O)/C(=N\NC(C)(C)C)C(=O)Nc1c(C)cc(Br)cc1C (stereo not drawn)	44.9	> 100	> 100	49.3	–	54.2	36.5	–	–	–	–	–	–	–	–	–	–	–	–	–
C[C@]12CCc3nc(Nc4cccc(O)c4)sc3C1=CC[C@@H]1[C@@H]2CC[C@]2(C)/C(=N\NC(N)=S)CC[C@@H]12	4.46	–	9.26	5	2.87	10.9	3.61	2.01	1.76	4.55	2.74	1.96	–	–	1.4	2.57	1.91	–	0.843	–
O=S(=O)([O-])c1ccc(N=Cc2ccccc2[O-])cc1.O=S(=O)([O-])c1ccc(N=Cc2ccccc2[O-])cc1.[O]=[U+2]=[O]	> 100	> 100	> 100	> 100	> 100	> 100	> 100	> 100	–	–	> 100	> 100	–	–	> 100	> 100	84.8	> 100	–	–
COC(=O)C(=O)C(C(=O)C(=O)Nc1cccc(C(C)=O)c1)c1nc2ccc([N+](=O)[O-])cc2[nH]c1=O (stereo not drawn)	> 100	> 100	> 100	> 100	–	> 100	> 100	–	–	–	–	–	–	–	–	–	–	–	–	–
COc1c(C)cc(O)cc1C=O	> 100	> 100	> 100	> 100	> 100	> 100	> 100	–	–	–	–	–	–	–	–	–	–	–	–	–
CC(=O)Nc1ccccc1-c1nc2ccccc2nc1C	> 100	> 100	> 100	> 100	> 100	> 100	> 100	–	–	–	–	–	–	–	–	–	–	–	–	–
O=c1cc(-c2ccccc2)oc2ccc(OC/C(=N/O)c3ccccc3)cc12	> 50	> 50	> 50	> 50	3.93	> 50	25.3	2.48	–	–	3.82	> 50	1.73	> 50	1.23	3.82	1.89	29	–	–
CCOC(=O)C1SC(=Nc2cccc(Cl)c2C)N=C1C (stereo not drawn)	–	89.5	> 10	–	42.5	61.9	38.3	–	–	–	–	–	–	–	–	–	–	–	–	–
Oc1ccc([Te]CCNCC[Te]c2ccc(O)cc2)cc1	45.8	–	19	55.3	–	48	22.4	–	–	–	–	–	–	–	–	–	–	–	–	–
C=CC(=O)NCCSCCCOC1(C(=O)O)CC(O)C(NC(C)=O)C(C(O)C(O)CO)O1 (stereo not drawn)	> 100	> 100	–	> 100	> 100	> 100	> 100	–	–	–	–	–	–	–	–	–	–	–	–	–
COc1cccc2ccc(C(=O)c3ccccc3)nc12	> 100	> 100	> 100	> 100	> 100	> 100	> 100	–	–	–	–	–	–	–	–	–	–	–	–	–
CN1C(=O)CCC2[C@@H]3CC=C4C[C@@H](O)CC[C@]4(C)C3CC[C@@]21C (stereo partly drawn)	> 100	> 100	> 100	> 100	> 100	> 100	–	–	–	–	–	–	–	–	–	–	–	–	–	–
CCCCCCCCOCC(O)COC(C)C (stereo not drawn)	> 100	> 100	–	> 100	32.9	> 100	> 100	–	–	–	–	–	–	–	–	–	–	–	–	–
COc1ccc(C(CCC(C)=O)C(=O)O)cc1OC (stereo not drawn)	> 100	> 100	> 100	–	> 100	> 100	> 100	–	–	–	–	–	–	–	–	–	–	–	–	–
COC(=O)CCC(NC(=S)N/N=C/c1ccccn1)C(=O)OC (stereo not drawn)	> 100	> 100	> 100	> 100	> 100	> 100	> 100	–	–	–	–	–	–	–	–	–	–	–	–	–
O=[N+]([O-])c1ccc(C2CC(c3ccccc3Cl)=Nc3ccccc3S2)cc1 (stereo not drawn)	16.1	24.5	31	29.4	34.2	5.59	> 57.6	–	–	–	–	–	–	–	–	–	–	–	–	–
